Measurements reported in article PMC8536124 (International Journal of Molecular Sciences, 2021).

What was measured:
NCI-H226 = test: NCI-60 screening (SRB); format: cell-based, human; conditions: five-dose
HOP-92 = test: NCI-60 screening (SRB); format: cell-based, human; conditions: five-dose; for GI50 / CC50: Homo sapiens; for CC50: read-out: LC50 (the source's name)
DU-145 = test: NCI-60 screening (SRB); format: cell-based, human; conditions: five-dose; for GI50 / CC50: Homo sapiens; for CC50: read-out: LC50 (the source's name)
KM12 = test: NCI-60 screening (SRB); format: cell-based, human; conditions: five-dose; for GI50 / CC50: Homo sapiens; for CC50: read-out: LC50 (the source's name)
SK-MEL-28 = test: NCI-60 screening (SRB); format: cell-based, human; conditions: five-dose; for GI50 / CC50: Homo sapiens; for CC50: read-out: LC50 (the source's name)
BT-549 = test: NCI-60 screening (SRB); format: cell-based, human; conditions: five-dose
MALME-3M = test: NCI-60 screening (SRB); format: cell-based, human; conditions: MALME-3M, five-dose; for GI50 / CC50: Homo sapiens; for CC50: read-out: LC50 (the source's name)
OVCAR-5 = test: NCI-60 screening (SRB); format: cell-based, human; conditions: five-dose; for GI50 / CC50: Homo sapiens; for CC50: read-out: LC50 (the source's name)
NCI/ADR-RES = test: NCI-60 screening (SRB); format: cell-based, human; conditions: five-dose; for GI50 / CC50: Homo sapiens; for CC50: read-out: LC50 (the source's name)
MDA-MB-31/ATCC = test: NCI-60 screening (SRB); format: cell-based, human; conditions: five-dose; for GI50 / CC50: Homo sapiens; for CC50: read-out: LC50 (the source's name)
COLO 205 = test: NCI-60 screening (SRB); format: cell-based, human; conditions: five-dose; for GI50 / CC50: Homo sapiens; for CC50: read-out: LC50 (the source's name)
CNS cancer = test: cells; format: cell-based; conditions: for TGI MG_MID / GI50 / CC50: CNS cancer subpanel, five-dose; for SI (TGI): CNS cancer, MG_MID60/subpanel MG_MID; for GI50 / CC50: Homo sapiens; for GI50: read-out: GI50 MG_MID; for CC50: read-out: LC50 MG_MID
Text: The experimental data allow the assessment of the cytostatic effect, indicated by growth inhibition values ranging between 0 and 100, as well as of the cytotoxic effect, indicated by negative values.
The mean GI50 (molar concentration of the compound that inhibits 50% net cell growth), TGI (molar concentration of the compound leading to the total inhibition), and LC50 (molar concentration of the compound leading to 50% net cell death (presented in negative logarithm)) values across each cell line are shown in Table 2.
The selectivity index (SI), calculated as the ratio between the full panel MG_MID60 (μM) of compounds 4, 6, and 9 by their respective subpanels MG_MID of the cell line (μM), was introduced as a quantification tool for the selectivity of each compound in terms of anticancer effect (Table 3).
Primary anticancer assays were performed according to the NCI protocol, as described elsewhere (see e.g., http://dtp.nci.nih.gov accessed on 1 November 2018). The compounds were added at a single concentration, and the cell cultures were incubated for 48 h. The end point determinations were made with a protein-binding dye, sulforhodamine B (SRB). […] The percentage of growth was evaluated spectrophotometrically versus controls not treated with test agents after 48 h exposure and using SRB protein assay to estimate cell viability or growth. Three antitumor activity dose-response parameters were calculated for each cell line. Furthermore, mean graph midpoints (MG_MID) were calculated for each of the parameters, giving an average activity parameter over all cell lines for the tested compound. For the MG_MID calculation, insensitive cell lines were included with the highest concentration tested.

NCI-H522 = test: NCI-60 screening (SRB); format: cell-based, human; conditions: five-dose
OVCAR-8 = test: NCI-60 screening (SRB); format: cell-based, human; conditions: five-dose; for GI50 / CC50: Homo sapiens; for CC50: read-out: LC50 (the source's name)
SN12C = test: NCI-60 screening (SRB); format: cell-based, human; conditions: five-dose; for GI50 / CC50: Homo sapiens; for CC50: read-out: LC50 (the source's name)
MDA-MB-468 = test: NCI-60 screening (SRB); format: cell-based, human; conditions: five-dose; for GI50 / CC50: Homo sapiens; for CC50: read-out: LC50 (the source's name)
OVCAR-3 = test: NCI-60 screening (SRB); format: cell-based, human; conditions: five-dose; for GI50 / CC50: Homo sapiens; for CC50: read-out: LC50 (the source's name)
HCC-2998 = test: NCI-60 screening (SRB); format: cell-based, human; conditions: five-dose; for GI50 / CC50: Homo sapiens; for CC50: read-out: LC50 (the source's name)
SK-MEL-5 = test: NCI-60 screening (SRB); format: cell-based, human; conditions: for GI50 / CC50: Homo sapiens; for GI50 / CC50 / TGI: five-dose; for CC50: read-out: LC50 (the source's name)
RXF 393 = test: NCI-60 screening (SRB); format: cell-based, human; conditions: five-dose; for GI50 / CC50: Homo sapiens; for CC50: read-out: LC50 (the source's name)
SF-539 = test: NCI-60 screening (SRB); format: cell-based, human; conditions: SF-539, five-dose; for GI50 / CC50: Homo sapiens; for CC50: read-out: LC50 (the source's name)
CAKI-1 = test: NCI-60 screening (SRB); format: cell-based, human; conditions: CAKI-1, five-dose; for GI50 / CC50: Homo sapiens; for CC50: read-out: LC50 (the source's name)
TK-10 = test: NCI-60 screening (SRB); format: cell-based, human; conditions: five-dose; for GI50 / CC50: Homo sapiens; for CC50: read-out: LC50 (the source's name)
SF-268 = test: NCI-60 screening (SRB); format: cell-based, human; conditions: five-dose; for GI50 / CC50: Homo sapiens; for CC50: read-out: LC50 (the source's name)
MCF7 = test: NCI-60 screening (SRB); format: cell-based, human; conditions: five-dose; for GI50 / CC50: Homo sapiens; for CC50: read-out: LC50 (the source's name)
NCI-H460 = test: NCI-60 screening (SRB); format: cell-based, human; conditions: five-dose; for GI50 / CC50: Homo sapiens; for CC50: read-out: LC50 (the source's name)
UACC-62 = test: NCI-60 screening (SRB); format: cell-based, human; conditions: five-dose; for GI50 / CC50: Homo sapiens; for CC50: read-out: LC50 (the source's name)
[1] = Homo sapiens, read-out: LC50 (the source's name)

## CCN1CCN(C(=O)[C@]23CC[C@@H](C)[C@H](C)[C@H]2C2=CC[C@@H]4[C@@]5(C)C/C(=C/c6cccnc6)C(=O)C(C)(C)[C@@H]5CC[C@@]4(C)[C@]2(C)CC3)CC1 [Compound 9, N-(2-{3-Pyridinylidene}-3-oxoursan-12-en-28-oyl)-ethylpiperazine]
NCI-H226; Homo sapiens
  GI50: 1.89 µM
NCI-H226; [1]
  CC50: 8.78 µM
NCI-H226
  TGI: 4.07 µM
HOP-92
  GI50: 1.57 µM
  CC50: 38.8 µM
  TGI: 5.73 µM
DU-145
  GI50: 2.08 µM
  CC50: 8.53 µM
  TGI: 4.21 µM
KM12
  GI50: 1.75 µM
  CC50: 7.23 µM
  TGI: 3.56 µM
SK-MEL-28
  GI50: 1.74 µM
  CC50: 5.69 µM
  TGI: 3.15 µM
BT-549; Homo sapiens
  GI50: 1.69 µM
BT-549
  TGI: 3.59 µM
MALME-3M
  GI50: 1.4 µM
  CC50: 5.39 µM
  TGI: 2.75 µM
OVCAR-5
  GI50: 1.54 µM
  CC50: 5.57 µM
  TGI: 2.93 µM
NCI/ADR-RES
  GI50: 1.59 µM
  CC50: 6.91 µM
  TGI: 3.31 µM
MDA-MB-31/ATCC
  GI50: 1.75 µM
  CC50: 7.39 µM
  TGI: 3.59 µM
COLO 205
  GI50: 2.19 µM
  CC50: > 100 µM
  TGI: 5.12 µM
CNS cancer
  TGI MG_MID: 4.41 µM
  SI (TGI): 1.20
  GI50: 1.71 µM
  CC50: 13.6 µM
NCI-H522; Homo sapiens
  GI50: 1.66 µM
NCI-H522
  TGI: 3.86 µM
OVCAR-8
  GI50: 2.32 µM
  CC50: > 100 µM
  TGI: 6.29 µM
SN12C
  GI50: 1.61 µM
  CC50: 5.66 µM
  TGI: 3.01 µM
MDA-MB-468
  GI50: 1.65 µM
  CC50: 7.1 µM
  TGI: 3.43 µM
OVCAR-3
  GI50: 1.65 µM
  CC50: 6.17 µM
  TGI: 3.19 µM
HCC-2998
  GI50: 1.55 µM
  CC50: 5.79 µM
  TGI: 3.00 µM
SK-MEL-5; SK-MEL-5
  GI50: 1.75 µM
  CC50: 5.63 µM
  TGI: 3.14 µM
RXF 393
  GI50: 1.45 µM
  CC50: 5.53 µM
  TGI: 2.83 µM
SF-539
  GI50: 1.66 µM
  CC50: 5.58 µM
  TGI: 3.05 µM
CAKI-1
  TGI: 11.8 µM
  GI50: 2.12 µM
  CC50: 41.9 µM
TK-10
  GI50: 2.87 µM
  CC50: 59.3 µM
  TGI: 9.40 µM
SF-268
  GI50: 1.77 µM
  CC50: 9.15 µM
  TGI: 4.02 µM
MCF7
  GI50: 1.64 µM
  CC50: 7.14 µM
  TGI: 3.42 µM
NCI-H460
  GI50: 1.78 µM
  CC50: 6.69 µM
  TGI: 3.45 µM
UACC-62
  GI50: 1.51 µM
  CC50: 5.8 µM
  TGI: 2.96 µM

## CCN1CCN(C(=O)[C@]23CCC(C)(C)C[C@H]2C2=CC[C@@H]4[C@@]5(C)C/C(=C/c6cccnc6)C(=O)C(C)(C)[C@@H]5CC[C@@]4(C)[C@]2(C)CC3)CC1 [Compound 6]
NCI-H226; Homo sapiens
  GI50: 1.76 µM
NCI-H226
  TGI: 3.80 µM
HOP-92
  GI50: 1.06 µM
  CC50: 10.1 µM
  TGI: 3.26 µM
DU-145
  GI50: 1.83 µM
  CC50: 8.23 µM
  TGI: 3.88 µM
KM12
  GI50: 1.58 µM
  CC50: 6.75 µM
  TGI: 3.26 µM
SK-MEL-28
  GI50: 1.48 µM
  CC50: 5.41 µM
  TGI: 2.83 µM
BT-549; Homo sapiens
  GI50: 1.47 µM
BT-549; [1]
  CC50: 5.66 µM
BT-549
  TGI: 2.88 µM
MALME-3M
  GI50: 1.53 µM
  CC50: 5.54 µM
  TGI: 2.91 µM
OVCAR-5
  GI50: 1.56 µM
  CC50: 7.19 µM
  TGI: 3.35 µM
NCI/ADR-RES
  GI50: 1.57 µM
  CC50: 7.6 µM
  TGI: 3.46 µM
MDA-MB-31/ATCC
  GI50: 1.4 µM
  CC50: 5.78 µM
  TGI: 2.84 µM
COLO 205
  GI50: 1.89 µM
  CC50: > 100 µM
  TGI: 4.74 µM
CNS cancer
  TGI MG_MID: 3.50 µM
  SI (TGI): 1.80
  GI50: 1.63 µM
  CC50: 22.1 µM
NCI-H522; Homo sapiens
  GI50: 1.61 µM
NCI-H522; [1]
  CC50: 8.73 µM
NCI-H522
  TGI: 3.75 µM
OVCAR-8
  GI50: 2.14 µM
  CC50: > 100 µM
  TGI: 5.54 µM
SN12C
  GI50: 1.22 µM
  CC50: 5.3 µM
  TGI: 2.54 µM
MDA-MB-468
  GI50: 1.28 µM
  CC50: 19.7 µM
  TGI: 3.94 µM
OVCAR-3
  GI50: 1.51 µM
  CC50: 5.73 µM
  TGI: 2.95 µM
HCC-2998
  GI50: 1.58 µM
  CC50: 6.17 µM
  TGI: 3.12 µM
SK-MEL-5; SK-MEL-5
  GI50: 1.63 µM
  CC50: 5.54 µM
  TGI: 3.00 µM
SK-MEL-5; SK-MEL-5, 1 dose 10 µM
  Growth %: −91.03%
SK-MEL-5; SK-MEL-5 melanoma, 1 dose 10 µM
  cell death: 88.15%
RXF 393
  GI50: 1.42 µM
  CC50: 5.41 µM
  TGI: 2.77 µM
SF-539
  GI50: 1.62 µM
  CC50: 5.55 µM
  TGI: 3.00 µM
CAKI-1
  TGI: 11.8 µM
  GI50: 2.08 µM
  CC50: 45.3 µM
TK-10
  GI50: 3.86 µM
  CC50: 54.1 µM
  TGI: 15.4 µM
SF-268
  GI50: 1.59 µM
  CC50: 85.7 µM
  TGI: 4.79 µM
MCF7
  GI50: 1.4 µM
  CC50: 6.71 µM
  TGI: 3.07 µM
NCI-H460
  GI50: 1.39 µM
  CC50: 6.2 µM
  TGI: 2.93 µM
UACC-62
  GI50: 1.28 µM
  CC50: 6.23 µM
  TGI: 2.83 µM
